# Experimental data as given in the NIST ThermoML archive (doi:10.1021/je049551l).
# Numbers after ± are expanded uncertainties.
# Conditions: Crystal; DTA
row,Compound,Normal melting temperature
1,COc1ccc2cc([C@H](C)C(=O)O)ccc2c1 [(S)-(+)-naproxen],157.50 ± 1.1 °C
2,"O=c1[nH]cc(F)c(=O)[nH]1 [5-fluoro-2,4(1H,3H)-pyrimidinedione]",284.00 ± 4 °C
3,"O=c1oc(-c2ccccc2)nc2ccccc12 [2-phenyl-4H-3,1-benzoxazin-4-one]",124.00 ± 2 °C
4,CC(=O)Nc1ccc(O)cc1 [N-acetyl-p-aminophenol],170.00 ± 4 °C
5,NC(=O)/N=N/C(N)=O [azodicarbonamide],224.50 ± 1.1 °C

# More lines, now with the values ahead:
row,Normal melting temperature,Compound
1,74.50 ± 3 °C,CC(C)Cc1ccc(C(C)C(=O)O)cc1 (stereo not drawn) [ibuprofen]
2,187.00 ± 2 °C,Cc1cn([C@H]2C[C@H](O)[C@@H](CO)O2)c(=O)[nH]c1=O [thymidine]
3,215.00 ± 4 °C,CC(=O)O[C@H]1C(=O)[C@@]2(C)[C@H]([C@H](OC(=O)c3ccccc3)[C@]3(O)C[C@H](OC(=O)[C@H](O)[C@@H](NC(=O)c4ccccc4)c4ccccc4)C(C)=C1C3(C)C)[C@]1(OC(C)=O)CO[C@@H]1C[C@@H]2O [paclitaxel]
